“Also recorded” adds a separate entry of the source.
What was measured:
SH-SY5Y cells [1] = assay: Neurite regeneration in SH-SY5Y cells; assay type: cell-based, human
Method: Thereafter, the culture was treated with berberine and further cultured for 2 days. The cultured cells were immunostained with nerve cell-specific labeled molecule, and then the number of cells having neurites longer than cell bodies was counted under a confocal microscope. A positive control was treated with bFGF under the same condition as described above to induce the differentiation into nerve cells. In addition, the neuroregenerative effect was examined after berberine together with bFGF was treated. The differentiation degree was measured by double-staining neurites with nerve cell-specific labeled molecule (anti-neurofilament antibody) and FITC-labeled secondary antibody (green), followed by staining cell nuclei with propidium iodide (red). In order to examine the effect of berberine on neurite regeneration, SH-SY5Y cells were used as differentiated nerve cell lines. Retinoic acid inducing neurite growth was used as a positive control.

SH-SY5Y cells [2] = assay: MTT assay, SH-SY5Y survival under oxidative stress (H2O2); assay type: cell-based, human
Method: SH-SY5Y cells were treated with H2O2 for 30 minutes to induce cell injuries. 3 hours before the cells were treated with H2O2, berberine (0.25˜3.5 μg) was added to cell culture to examine its cell protection effect (see, Table 4 and FIG. 4b).

bcl-2 mRNA = assay: Expression of bcl-2 mRNA in white rat cerebra (RT-PCR); assay type: in vivo; conditions: berberine 5 mg/kg intraperitoneally
Method: All groups were intraperitoneally injected. RT-PCR was performed to examine the expression of bcl-2 mRNA, which is an anti-apoptosis gene expressed in cerebral tissues. GAPDH mRNA was used as a control group. The expression of GAPDH mRNA was also performed by RT-PCR method.
1 ml of TRI Reagent (Molecular Research Center Inc., USA) was added to 100 mg of cerebral tissue sections, and the mixture was homogenized and then left at room temperature for 10 minutes. 0.1 ml of BCP (Sigma, USA) was added to 1 ml of the homogenized mixture, mixed with each other for 1 minute, and then left at 4° C. for 10 minutes. After the mixture was centrifuged at 12,000 rpm, 4° C. for 15 minutes, the supernatant was added to cold isopropanol and left at a temperature of −20° C. for 16 hours. Thereafter, the supernatant was centrifuged at 12,000 rpm, 4 for 15 minutes to obtain RNA precipitates. The obtained RNA precipitates were washed with DEPC diethylpyrocarbonate)-treated cold ethanol (75%), and dried using SpeedVac. The dried RNA was dissolved in DEPC-treated distilled water. After the concentration and purity of RNA were spectrophotometrically measured at 260 nm, the isolated RNA was stored at a temperature of −20° C. before use. […]
10 μl of amplified PCR product was electrophoresed in a 1.5% agarose gel, and the density was measured using a gel documentation system (Bio-Rad Lab, USA).

[3] = N2, H2O2 + berberine 0.25 μg/ml

`COc1ccc2cc3[n+](cc2c1OC)CCc1cc2c(cc1-3)OCO2` [Berberine, 7,8,13,13a-tetradihydro-9,10-dimethoxy-2,3-(methylenedioxy) berbinium] was tested, and the length of neurites (SH-SY5Y cells [1]; berberine) was “lengthened the length of neurites”, the “total number of nerve cells, increase” value (SH-SY5Y cells [1]; berberine) was “increased two times; also recorded: doubled” and the “Average (%) of differentiated cells” value (SH-SY5Y cells [1]; berberine 0.25 μg/ml) was 63.34%. For the same compound, the “Number of differentiated cells” value (SH-SY5Y cells [1]; berberine 0.25 μg/ml) was 26.51, the “total average cell numbers” value (SH-SY5Y cells [1]; berberine 0.25 μg/ml) was 39.75 and the “Average (%) of differentiated cells” value (SH-SY5Y cells [1]; berberine 1.5 μg/ml) was 71.04%. For the same compound, the “Number of differentiated cells” value (SH-SY5Y cells [1]; berberine 1.5 μg/ml) was 27.89, the “total average cell numbers” value (SH-SY5Y cells [1]; berberine 1.5 μg/ml) was 38.80 and the “Average (%) of differentiated cells” value (SH-SY5Y cells [1]; berberine 3 μg/ml) was 73.95%. For the same compound, the “Number of differentiated cells” value (SH-SY5Y cells [1]; berberine 3 μg/ml) was 28.64, the “total average cell numbers” value (SH-SY5Y cells [1]; berberine 3 μg/ml) was 38.60 and the “Average (O.D. relative to H2O2 alone)” value (SH-SY5Y cells [2]; [3]) was 208%. The O.D. (SH-SY5Y cells [2]; [3]) was 0.116, the “Average (O.D. relative to H2O2 alone)” value (SH-SY5Y cells [2]; N2, H2O2 + berberine 1.5 μg/ml) was 287% and the O.D. (SH-SY5Y cells [2]; N2, H2O2 + berberine 1.5 μg/ml) was 0.16. For the same compound, the “Average (O.D. relative to H2O2 alone)” value (SH-SY5Y cells [2]; N2, H2O2 + berberine 3 μg/ml) was 344%, the O.D. (SH-SY5Y cells [2]; N2, H2O2 + berberine 3 μg/ml) was 0.192 and the “Average (O.D. relative to H2O2 alone)” value (SH-SY5Y cells [2]; N2, H2O2 + berberine 3.5 μg/ml) was 228%. For the same compound, the O.D. (SH-SY5Y cells [2]; N2, H2O2 + berberine 3.5 μg/ml) was 0.127, the “expression of bcl-2 mRNA in cerebral tissues” value (bcl-2 mRNA) was “High bcl-2 mRNA Expression” and the “expression of bcl-2 mRNA in cerebral tissues” value (bcl-2 mRNA; listed as berberine) was “higher than in the control group; also recorded: increased”.

From US20040097534A1, “Composition for the protection and regeneration of nerve cells containing berberine derivatives” (EUGENBIO INC., priority 2001, published 2004)
